Measured values published in patent publication US8404287B2, “Use of Fructus schisandrae and extracts thereof in preventing and decreasing toxic and side effects of antineoplastic drugs” (priority 2005, dated 2013).
Like-named read-outs stand apart in the source and are kept apart here.

Columns and labels:
ICR mice [1] = conditions: antineoplastic agent ip once every two days x7 (Methotrexate 2, Cisplatin 2, 5-fluorouracil 30, Cytoxan 30, Vincristine 0.3 mg/kg), alone or within two hours after lignan 100 mg/kg ig
Text: The mice were divided randomly as following, 6 mice per group.

ICR mice [2] = conditions: antineoplastic agent ip once every two days x7 (Methotrexate 2, Cisplatin 2, 5-fluorouracil 30, Cytoxan 30, Vincristine 0.3, Doxorubicin 4 mg/kg), alone or within 2 h after extract 400 mg/kg ig
Text: The mice were grouped randomly as below, 6 mice per group.

[3] = system: mice with myocardial damage induced by Doxorubicin; assay: Serum myocardium enzymes (CK, CK-MB, LDH, GOT) after Doxorubicin, Schisandrin B (Example 7)
Description: CK, CK-MB, LDH and GOT were determined by automatic biochemistry analyzer.
Control group: 24 mice were dosed intragastrically with normal saline at the 1st-3rd day of the experiment, once a day and each time with 20 ml/kg.
Group of Schisandrin B (SchB group): 24 mice were dosed intragastrically with SchB at the 1st-3rd day of the experiment, once a day and each time with 100 mg/kg.
Group of Doxorubicin: 42 mice were dosed intragastrically with normal saline at the 1st-3rd day of the experiment, once a day and each time with 20 ml/kg.
At the 5th day (48 hours after injection of Doxorubicin into abdominal cavity), blood were taken from 6 mice of each group. The serum was separated by regular separation. CK, CK-MB, LDH and GOT were determined by automatic biochemistry analyzer.

ICR mice [4] = assay: Apparent condition of mice, ethanol extract and Doxorubicin (Example 2); type: in vivo, mouse; conditions: Doxorubicin alone or with extract ig 3 times
[5] = system: mice with acute toxicity induced by Doxorubicin; assay: Survival rate of mice with acute toxicity induced by Doxorubicin, Schisandrin B (Example 7); type: in vivo, mouse
Description: Group of Doxorubicin: 42 mice were dosed intragastrically with normal saline at the 1st-3rd day of the experiment, once a day and each time with 20 ml/kg. At the 3rd day, the mice were injected into their abdominal cavities with Doxorubicin of 25 mg/kg.
At the 3rd day, the mice were injected into their abdominal cavities with 25 mg/kg of Doxorubicin 0.5 hours after drench.

[6] = system: mice with acute toxicity induced by Doxorubicin; assay: Survival rate of mice with acute toxicity induced by Doxorubicin, ethanol extract (Example 2); type: in vivo, mouse
Description: Group of Doxorubicin (the Dox group): 42 mice were dosed intragastrically with normal saline in an amount of 20 ml/kg each time at the 1st-3rd day of the experiment, once a day. At the 3rd day, the mice were injected with Doxorubicin of 25 mg/kg into their abdominal cavities.
Group 1 of Doxorubicin plus the extract of Fructus schisandrae (group 1 of Dox +X): 24 mice were dosed intragastrically with the extract of Fructus schisandrae in an amount of 400 mg/kg each time at the 1st-3rd day of the experiment, once a day. At the 3rd day, the mice were injected with 25 mg/kg of Doxorubicin into their abdominal cavities 0.5 hours after drench.
Group 2 of Doxorubicin plus the extract of Fructus schisandrae (group 2 of Dox +X): 24 mice were dosed intragastrically with the extract of Fructus schisandrae in an amount of 200 mg/kg each time at the 1st-3rd day of the experiment, once a day. At the 3rd day, the mice were injected with 25 mg/kg of Doxorubicin into their abdominal cavities 0.5 hours after drench.

[7] = system: mice with myocardial damage induced by Doxorubicin; assay: Serum myocardium enzymes (CK, CK-MB, LDH, GOT) after Doxorubicin, ethanol extract (Example 2); type: in vivo, mouse; conditions: Dox group: Doxorubicin 25 mg/kg ip at 3rd day; vs control group and X group (P<0.05); 48 h after injection
Description: Ethanol extract of Fructus schisandrae prepared from Example 1 was dissolved in 0.5% Poloxamer. CK (creatine kinase), CK-MB (creatine kinase isozyme), LDH (lactic dehydrogenase) and GOT (glutamic-oxalocetic transaminase) were detected by automatic biochemistry analyzer.
The serum was separated by regular separation and frozen at −80° C.

ICR mice [8] = conditions: Doxorubicin alone or in combination with dibenzocyclooctadiene lignans
Description: Doxorubicin Hydrochloride Injection was obtained from Italy pharmacia Co. Six Dibenzocyclooctadiene lignans were obtained from National Institute for the Verification of Pharmaceutical and Biological Products (Product No.: 110765-200407), which were dissolved in 0.5% Poloxamer. Female ICR mice with a body weight of 25-30 g were obtained from Shanghai Experimental Animal Center, which were grouped randomly into 4 groups, 10 mice per group.
Group of Doxorubicin (Dox group): 10 mice were injected into their abdominal cavities with 2 mg/kg of Doxorubicin once every two days, consecutively for 7 times.

[9] = system: left ventricular myocardium matrix metalloproteinase (MMP-2); assay: Left ventricular myocardium MMP-2 activity, Schisandrin B (Example 7); type: in vivo, mouse
Description: The experimental method was carried out as those described in Example 2 (1.4).

SMILES: O=P1(N(CCCl)CCCl)NCCCO1 (stereo not shown) [Cytoxan]
- Heart weight (ICR mice [1]): 162.6 ± 31.4 mg
- Kidney weight (ICR mice [1]): 396.3 ± 54.7 mg
- Liver weight (ICR mice [1]): 1.88 ± 0.36 g
- Spleen weight (ICR mice [1]): 113.5 ± 24.7 mg
- Thymus weight (ICR mice [1]): 49.8 ± 12.4 mg
- Heart weight (ICR mice [2]): 162.6 ± 31.4 mg
- Kidney weight (ICR mice [2]): 396.3 ± 54.7 mg
- Liver weight (ICR mice [2]): 1.88 ± 0.36 g
- Spleen weight (ICR mice [2]): 113.5 ± 24.7 mg
- Thymus weight (ICR mice [2]): 49.8 ± 12.4 mg

SMILES: COc1cccc2c1C(=O)c1c(O)c3c(c(O)c1C2=O)C[C@@](O)(C(=O)CO)C[C@@H]3O[C@H]1C[C@H](N)[C@H](O)[C@H](C)O1 [Doxorubicin]
- 4 serum enzyme indexes (CK, CK-MB, LDH, GOT) ([3]; Doxorubicin 25 mg/kg ip alone, vs control group and Sch B group (P<0.05), 48 h after injection): significantly higher
- apparent condition of mice (ICR mice [4]): in bad conditions, manifested as asthenia, listlessness, hypotrichosis
- survival rate on the 7th day ([5]; Doxorubicin 25 mg/kg ip alone): 0
- day on which death of mice occurred ([5]; Doxorubicin 25 mg/kg ip, alone or with Sch B 100, 50 or 25 mg/kg ig days 1-3): 4 days
- survival rate on the 7th day ([6]; Dox group: Doxorubicin 25 mg/kg ip alone): 3.7%
- day on which death of mice occurred ([6]; Doxorubicin 25 mg/kg ip, alone or with extract 400 or 200 mg/kg ig days 1-3): 5 days
- serum myocardium enzyme spectrum indexes (CK, CK-MB, LDH, GOT) [7]: significantly higher
- apparent conditions of mice (ICR mice [8]): in bad conditions after 7-8 days, manifested as asthenia, listlessness and hypotrichosis

SMILES: COc1cc2c(c(OC)c1OC)-c1c(cc3c(c1OC)OCO3)CC(C)C(C)C2 (stereo not shown) [Schisandrin B]
- increase of mouse left ventricular myocardium MMP-2 activity induced by Doxorubicin ([9]; FIG. 14): inhibit the increase
- left ventricular myocardium MMP-2 activity ([9]; Sch B group: 100 mg/kg ig days 1-3, no Doxorubicin): No left ventricular myocardium matrix metalloproteinase (MMP-2) activity
- increase of mouse serum creatine kinase (CK) induced by Doxorubicin ([3]; FIG. 10): inhibit the increase
- increase of mouse serum creatine kinase isozyme (CK-MB) induced by Doxorubicin ([3]; FIG. 11): inhibit the increase
- increase of mouse serum glutamic-oxalocetic transaminase (GOT) induced by Doxorubicin ([3]; FIG. 12): inhibit the increase
- increase of mouse serum lactic dehydrogenase (LDH) induced by Doxorubicin ([3]; FIG. 13): inhibit the increase
- death of mouse induced by Doxorubicin ([5]; FIG. 15): inhibit the death
